According to patent US20230107216A1, “PANTETHEINE DERIVATIVES AND USES THEREOF” (Comet Therapeutics, Inc., priority 2018, published 2023):
Like-named read-outs stand apart in the source and are kept apart here.

What was measured:
HepG2 cells = assay: Glucose uptake (Glucose Uptake-Glo); type: cell-based; conditions: Homo sapiens, 10 uM, read-out: % increase in Glucose Uptake
[1] = test system: Methylmalonic Acidemia (MMA) primary fibroblasts Tsi 5224; assay: Mitochondrial respiration, XFe96 Extracellular Flux Analyzer (OCR/ECAR), MMA fibroblasts Tsi 5224; type: cell-based; conditions: Homo sapiens, Fibroblast;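 for Increase in Maximal Respiratory Capacity AUC: relative to vehicle DMSO control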
Method: The effect of the compounds of the present disclosure on mitochondrial respiration was measured with a XFe96 Extracellular Flux Analyzer (Seahorse Bioscience, Agilent Technologies) and Oxygen consumption Rate (OCR) and Extracellular acidification rate (ECAR) determined.
Cell culture and treatments. Primary adherent fibroblasts were cultured in minimum essential medium (MEM) (Gibco, 25030081) supplemented with 2 mM L-Glutamine (Gibco, 25030081), 15% fetal bovine serum (FBS) (Gibco, 26400044) and 1% penicillin/streptomycin (Gibco, 5140122) at 37° C. and 5% CO2. Cells were collected for either passaging or experiment at ˜70-80% confluence. Cells were obtained by trypsinization and seeded at 20000 cells/well in cell culture microplates (Seahorse Bioscience, 101085-004) and allowed to adhere for 16 hours in culture media.
By profiling different primary cells and/or optimizing their culture media or environmental components one can select cell lines and/or conditions that are appropriate for the biological or disease model. In the present example, 24 hours prior to OCR and ECAR profiling, media was changed to Dulbecco's Modified Eagle Medium (DMEM, Agilent Seahorse 103575-100) with the appropriate supplements for the different primary cells (10 mM glucose, 2 mM L-glutamine, 1 mM pyruvate, 10% FBS; 1 mM glucose, 2 mM L-glutamine, 1 mM pyruvate, 10% FBS; 10 mM glucose, 10% FBS; 5 mM glucose 10% FBS; 1 mM glucose 10% FBS). Cells used in this example were: Propionic Acidemia (PA) (GM00371, GM03590 Coriell Institute for Medical Research, Tsi 6337, Tsi 4626, Tsi 3618 Trans-Hit Bio), Methylmalonic Acidemia (MMA) (GM01673, Coriell Institute for Medical Research, Tsi 5224 Trans-Hit Bio), Branched chain ketoacid dehydrogenase kinase (BCKDK) (GM00612, GM00649 Coriell Institute for Medical Research), Subnormal activation of pyruvate dehydrogenase complex (PDH) (GM01503 Coriell Institute for Medical Research), Very long-chain acyl-CoA dehydrogenase (VLCAD) (GM17475), Leigh Syndrome (LS) (GM03672, GM13411 Coriell Institute for Medical Research), Pyruvate Carboxylase Deficiency (PC) (GM00444 Coriell Institute for Medical Research), Glutaric Acidemia-I (GA) (GM10653), Friedreich's Ataxia (FXN) (GM04078 Coriell Institute for Medical Research, Huntington's disease (HD) (GM21756 Coriell Institute for Medical Research), Ornithine Transcarbamylase Deficiency (OTC) (GM12756 Coriell Institute for Medical Research), Kearns-Sayre Syndrome (KSS) (GM06225 Coriell Institute for Medical Research).
One hour before the assay, the cells were washed with freshly prepared unbuffered serum free-Seahorse XF Assay medium (Seahorse Bioscience, North America, USA, 103575-100) with the same supplements as for the previous 24 hour incubation.
After baseline measurements of OCR, cells were challenged with compounds of the present disclosure at different concentrations (10 to 50 μM) or vehicle (DMSO, 0.1%) and a post-compound baseline was recorded. OCR was measured after sequentially adding to each well 1 μg/ml oligomycin (inhibitor of ATP synthase Sigma-Aldrich, 753531), then maximal OCR was determined with carbonyl cyanide 4-(trifluoromethoxy) phenylhydrazone (FCCP, Sigma-Aldrich, C2920), (uncoupler of oxidative phosphorylation) and 0.5 μM of rotenone (Sigma-Aldrich, R8875) plus antimycin A (Sigma-Aldrich, A8674) (inhibitors of mitochondrial complex I and III) for determination of rotenone-antimycin insensitive respiration together with Hoechst for nuclear staining in situ when normalized to cell counts. After the analysis and nuclear staining, the XFp microplate was transferred to the Cytation 5, and the nuclear images were captured, the individual nuclei were identified and counted by BioTek Gen5 software. Data were expressed as pmol of O2 per minute and normalized by nuclear staining and baselined to pre-compound addition.
Assay conditions were as stated below.
Assay specifics on assay conditions are indicated below when readouts were normalized to cell counts. […]

[2] = test system: monocyte-derived M1 macrophages; assay: M1 differentiation assay (macrophage TNFα, IL6, IL10 ELISA, FACS); type: cell-based, human
Method: Monocytes were isolated by positive isolation with CD14+ microbeads (Miltenyi, 130-050-201). Monocytes were 99% viable and were 96% purity as analyzed by FACS and CD14+ (BD, 563561). 100,000 monocytes along with compounds at the dose of 10 and 50 μM were allowed to differentiate to macrophages with 10 ng/ml GMCSF (R&D, 15-GM-050/CF) in RPMI complete media (Invitrogen, 22400089) with 15% FBS (Hyclone SV30087.03) and 1% Penicillin-Streptomycin (Gibco, 15140-122). On day 2 and 4 half the media was refreshed with fresh GM-CSF and compounds at 10 and 50 μM dose. On day 6 the macrophages were matured with GMCSF, IFNγ (R&D 285-IF-100/CF) and LPS (Sigma, L6143) in the presence of 10 μM and 50 μM of compounds. After 24h, supernatant was collected for the measurement of TNFα (DKW, 1117202) IL6 (DKW, 1110602), IL10 (DKW, 1110003) by ELISA. Macrophages were detached gently on ice with EDTA (Invitrogen, 15575-038) and analyzed by FACS (BD LSR Fortessa, 853492). Cells were stained for live/dead dye, surface and intracellular markers with fixation/permeabilization solution (BD, 554714) and ALIVE/DEAD™ Fixable Near-IR Dead Cell Stain Kit (BD, L34976), mouse anti human CD86 APC (BD, 555660), mouse anti-human CD163 PE (BD, 556018), mouse anti-human CD68 FITC (BD, 562117) or isotype controls anti-mouse IgG1 κ PE (BD, 559320) and anti-mouse IgG1 κ APC (BD, Anti mouse IgG1 κ APC (BD, 55571). Mature M1 macrophages were defined as CD86+CD68+CD163− and increase in TNFα, IL6, and decrease in IL-10.

[3] = test system: primary fibroblasts (healthy controls and PA, MMA, BCKDK, PDH, VLCAD, LS, PC, GA, VLCFA, KSS, FXN, HD); assay: Measurement of ROS (H2DCFDA) in primary fibroblasts; type: cell-based, human; conditions: Homo sapiens, procedure Example 812, Assay Condition C
Method: Primary adherent fibroblasts were cultured in minimum essential medium (MEM) (Gibco, 25030081) supplemented with 2 mM L-Glutamine (Gibco, 25030081), 15% fetal bovine serum (FBS) (Gibco, 26400044) and 1% penicillin/streptomycin (Gibco, 5140122) at 37° C. and 5% CO2. Cells were collected for either passaging or experiment at ˜70-80% confluence. Cells were obtained by trypsinization and seeded in cell culture microplates either white plate (Thermo Fisher Scientific, 152028) for luminescent measurement or black plate (Thermo Fisher Scientific, 165305) for fluorescent based read out for different assays listed below. Cells were obtained by trypsinization and […] were seeded and allowed to adhere for 16-18 hours to have confluency around 70-80% in the cell well with culture media. After 24 hours prior to measurements (37° C., 5% CO2) media was changed to Dulbecco's Modified Eagle Medium (DMEM, Agilent Seahorse cat #103575-100) with the appropriate supplements as stated below.
Primary fibroblasts assayed were Healthy controls (GM00041, GM05659, GM23974 Coriell Institute for Medical Research), Propionic Acidemia (PA) (GM00371, GM03590 Coriell Institute for Medical Research, Tsi 6337 Trans-Hit Bio), Methylmalonic Acidemia (MMA) (GM01673, Coriell Institute for Medical Research, Tsi 5224, Tsi 4290 Trans-Hit Bio), Branched chain ketoacid dehydrogenase kinase (BCKDK) (GM00612, GM00649 Coriell Institute for Medical Research), Subnormal activation of pyruvate dehydrogenase complex (PDH) (GM01503 Coriell Institute for Medical Research), Very long-chain acyl-CoA dehydrogenase (VLCAD) (GM17475), Leigh Syndrome (LS) (GM03672, GM13411 Coriell Institute for Medical Research), Pyruvate Carboxylase Deficiency (PC) (GM00444 Coriell Institute for Medical Research), Glutaric Acidemia-I (GA), Impaired VLCFA oxidation (VLCFA) (GM13262), Kearns-Sayre Syndrome (KSS) (GM06225 Coriell Institute for Medical Research), Friedreich's Ataxia (FXN), Huntington's disease (HD) (GM21756 Coriell Institute for Medical Research). Next, cells were treated with compounds (10 μM) and ROS H2DCFDA (22 μM) dye for 2 hours in PA, MMA lines and for 24h for the other fibroblast lines. Kinetic read was started immediately with a i3x plate reader (492/527 nm) for 60 minutes.
A total dead cell count was performed as described in Example 817 and only alive cells were used for analysis.

[4] = test system: Propionic Acidemia (PA) primary fibroblasts GM00371; assay: Mitochondrial respiration, XFe96 Extracellular Flux Analyzer (OCR/ECAR), PA fibroblasts GM00371; type: cell-based; conditions: Homo sapiens, Fibroblast, assay condition C (10 mM glucose, 10% FBS), 50 μM, read-out: Increase in Maximal Respiratory Capacity AUC
[5] = MMA Tsi 5224, assay condition D (1 mM glucose, 10% FBS), read-out: Increase in Maximal Respiratory Capacity AUC
[6] = Fibroblast, PC GM00444, read-out: Decreased ROS by at least 10%
[7] = Fibroblast, PC GM00444, read-out: Decreased ROS by at least 30%
[8] = FXN GM04078, read-out: Decreased ROS by at least 10%
[9] = FXN GM04078, read-out: Decreased ROS by at least 30%
[10] = MMA Tsi 5224, assay condition A (10 mM glucose, 2 mM L-glutamine, 1 mM pyruvate, 10% FBS), read-out: Increase in Maximal Respiratory Capacity AUC

## CC(=O)SCCNC(=O)CCNC(=O)[C@H](O)C(C)(C)CO [Compound 1241, (R)—S-(2-(3-(2,4-dihydroxy-3,3-dimethylbutanamido)propanamido)ethyl) ethanethioate]
HepG2 cells
  activation at 10 µM: ≥ 30%

## CC(C)(C)OC(=O)N[C@@H](CC(=O)SCCNC(=O)CCNC(=O)[C@H](O)C(C)(C)CO)C(=O)OC(C)(C)C [Compound 1318]
[1]; MMA Tsi 5224, assay condition B (1 mM glucose, 2 mM L-glutamine, 1 mM pyruvate, 10% FBS), read-out: Increase in Spare Capacity AUC
  activation at 10 µM: ≥ 10%

## COC(=O)CC(SCCNC(=O)CCNC(=O)[C@H](O)C(C)(C)COP(=O)(O)O)C(=O)OC (stereo partly drawn) [Compound 86, dimethyl 2-((2-(3-((R)-2-hydroxy-3,3-dimethyl-4-(phosphonooxy)butanamido)propanamido)ethyl)thio)succinate]
[1]; [5]
  activation at 10 µM: ≥ 10%
[2]; 10 uM
  % Increase in Live Macrophage Cells: ≥20%

## COC(=O)[C@@H](N)CCC(=O)SCCNC(=O)CCNC(=O)[C@H](O)C(C)(C)CO [Compound 412, methyl (2S)-2-amino-5-[(2-[3-[(2R)-2,4-dihydroxy-3,3-dimethylbutanamido]propanamido]ethyl)sulfanyl]-5-oxopentanoate]
[3]; [6]
  inhibition at 10 µM: ≥ 10%
[3]; [7]
  inhibition at 10 µM: ≥ 30%
[3]; [8]
  inhibition at 10 µM: ≥ 10%
[3]; [9]
  inhibition at 10 µM: ≥ 30%

## COC(=O)C(=O)SCCNC(=O)CCNC(=O)[C@H](O)C(C)(C)CO [Compound 30, Methyl (R)-2-((2-(3-(2,4-dihydroxy-3,3-dimethylbutanamido)propanamido)ethyl)thio)-2-oxoacetate]
[1]; [10]
  activation at 10 µM: ≥ 10%

## COC(=O)CCC(=O)CC(=O)SCCNC(=O)CCNC(=O)[C@H](O)C(C)(C)CO [Compound 5, methyl 6-[(2-[3-[(2R)-2,4-dihydroxy-3,3-dimethylbutanamido]propanamido]ethyl)sulfanyl]-4,6-dioxo-hexanoate]
[4]
  activation at 50 µM: ≥ 10%

## CC(=O)C(C)C(=O)SCCNC(=O)CCNC(=O)[C@H](O)C(C)(C)CO (stereo partly drawn) [Compound 396, (2R)-2,4-dihydroxy-3,3-dimethyl-N-[2-([2-[(2-methyl-3-oxobutanoyl)sulfanyl]ethyl]carbamoyl)ethyl]butanamide]
[3]; [6]
  inhibition at 10 µM: ≥ 10%
[3]; [7]
  inhibition at 10 µM: ≥ 30%
[4]
  activation at 50 µM: ≥ 10%

## CC(C)(COC(=O)CCC(=O)O)[C@@H](O)C(=O)NCCC(=O)NCCSC(=O)CCC(=O)O [Compound 1232]
[1]; [10]
  activation at 10 µM: ≥ 10%
[1]; [5]
  activation at 10 µM: ≥ 10%
[3]; Fibroblast, VLCFA GM13262, read-out: Decreased ROS by at least 10%
  inhibition at 10 µM: ≥ 10%
[3]; Fibroblast, VLCFA GM13262, read-out: Decreased ROS by at least 30%
  inhibition at 10 µM: ≥ 30%
[3]; [8]
  inhibition at 10 µM: ≥ 10%
[3]; [9]
  inhibition at 10 µM: ≥ 30%

## CC(O)CC(=O)CC(=O)CC(=O)SCCNC(=O)CCNC(=O)[C@H](O)C(C)(C)CO (stereo partly shown) [Compound 379]
[3]; [8]
  inhibition at 10 µM: ≥ 10%

## COC(=O)[C@@H](N)CC(=O)SCCNC(=O)CCNC(=O)[C@H](O)C(C)(C)CO [Compound 415]
[1]; MMA Tsi 5224, assay condition D (1 mM glucose, 10% FBS), read-out: Increase in Spare Capacity AUC
  activation at 10 µM: ≥ 10%
[2]; 50 uM
  % decrease in Live Macrophage Cells: ≥20%
[2]; Homo sapiens, Macrophage, 10 uM, read-out: % Increase in IL-10 Secretion
  activation at 10 µM: ≥ 30%
[2]; Homo sapiens, Macrophage, 10 uM, read-out: % decrease in Macrophage IL-6 Secretion
  inhibition at 10 µM: ≥ 30%
[2]; Homo sapiens, Macrophage, 10 uM, read-out: % decrease in Macrophage TNFα Secretion
  inhibition at 10 µM: ≥ 30%
